Test results: patent publication US20210393604A1, “NOVEL BENZIMIDAZOLONE COMPOUND AND PHARMACEUTICAL USE THEREOF” (Sumitomo Dainippon Pharma Co., Ltd., priority 2017, published 2021)

Target: Nav 1.7 (human SCN9A) (Homo sapiens, UniProt Q15858)
Test: Measurement of Na ion current by automated patch clamp assay in cells stably-expressing human SCN9A
Type: cell-based
Conditions: compound concentration 10 μmol/L; peak current at 30th depolarizing pulse (10 Hz); holding potential inactivating 50% Nav 1.7 channel (around −60 mV); room temperature; read-out: Inhibitory rate (%) of Na ion current
Protocol: Measurement of Na Ion Current in Voltage-Dependent Na Channel Gene Expressed Cell
Nav 1.7 current was measured by automated patch clamp assay using cells stably-expressing human SCN9A.
Cells Stably-Expressing Human SCN9A
Tetracycline-induced cells stably-expressing SCN9A were obtained from ChanTest Corporation. The cells were passaged in Ham's F-12 medium containing […], 100 units/mL Penicillin-Streptomycin, 0.01 mg/mL Blasticidin, and 400 μg/mL Zeocin. The cell seeded on a glass slide was cultured in Ham's F-12 medium containing 1 μg/mL tetracycline, 1 μg/mL sodium butyrate, 10% fetal bovine serum, and 100 units/mL Penicillin-Streptomycin. Next day, the Na ion current was measured by automated patch clamp assay.
Electrophysiologic Measurement of Na Ion Current
The Na ion current was measured by automated patch clamp assay using the following extracellular solution and intracellular solution.
Extracellular solution (mmol/L): NaCl 130, MgCl2 2, CaCl2) 2, CdCl2 0.1, NiCl2 0.1, Tetraethylammonium-Cl 18, 4-aminopyridine 1, HEPES (4-(2-hydroxyethyl)-1-piperazineethanesulfonic acid) 10, (adjusting pH 7.4 with NaOH)
Intracellular solution (mmol/L): CsF 120, EGTA (ethylene glycol tetraacetic acid) 10, NaCl 15, HEPES 10, (adjusting pH 7.2 with CsOH)
The control of the stimulating pulse and the data acquisition were carried out using EPC10 amplifier and Patch Master Software (HEKA). Data were sampled at 20 kHz, and low-pass filtered at 2.9 kHz. All the measurements were carried out at room temperature. The holding potential was set at a potential inactivating 50% Nav 1.7 channel (around −60 mV), and depolarizing pulse of 20 milliseconds (around 0 mV) was given at a frequency of 10 Hz 30 times. […] The inhibitory rate of the Na ion current by the test compounds was calculated according to the following calculating formula with the peak current value generated by the 30th depolarizing pulse.
Inhibitory rate of Na ion current (%)=100×[(Peak current value in the absence of Test Compound)−(Peak current value in the presence of Test Compound)]/(Peak current value in the absence of Test Compound)

Nav 1.7 (human SCN9A), sequence (Q15858 whole entry): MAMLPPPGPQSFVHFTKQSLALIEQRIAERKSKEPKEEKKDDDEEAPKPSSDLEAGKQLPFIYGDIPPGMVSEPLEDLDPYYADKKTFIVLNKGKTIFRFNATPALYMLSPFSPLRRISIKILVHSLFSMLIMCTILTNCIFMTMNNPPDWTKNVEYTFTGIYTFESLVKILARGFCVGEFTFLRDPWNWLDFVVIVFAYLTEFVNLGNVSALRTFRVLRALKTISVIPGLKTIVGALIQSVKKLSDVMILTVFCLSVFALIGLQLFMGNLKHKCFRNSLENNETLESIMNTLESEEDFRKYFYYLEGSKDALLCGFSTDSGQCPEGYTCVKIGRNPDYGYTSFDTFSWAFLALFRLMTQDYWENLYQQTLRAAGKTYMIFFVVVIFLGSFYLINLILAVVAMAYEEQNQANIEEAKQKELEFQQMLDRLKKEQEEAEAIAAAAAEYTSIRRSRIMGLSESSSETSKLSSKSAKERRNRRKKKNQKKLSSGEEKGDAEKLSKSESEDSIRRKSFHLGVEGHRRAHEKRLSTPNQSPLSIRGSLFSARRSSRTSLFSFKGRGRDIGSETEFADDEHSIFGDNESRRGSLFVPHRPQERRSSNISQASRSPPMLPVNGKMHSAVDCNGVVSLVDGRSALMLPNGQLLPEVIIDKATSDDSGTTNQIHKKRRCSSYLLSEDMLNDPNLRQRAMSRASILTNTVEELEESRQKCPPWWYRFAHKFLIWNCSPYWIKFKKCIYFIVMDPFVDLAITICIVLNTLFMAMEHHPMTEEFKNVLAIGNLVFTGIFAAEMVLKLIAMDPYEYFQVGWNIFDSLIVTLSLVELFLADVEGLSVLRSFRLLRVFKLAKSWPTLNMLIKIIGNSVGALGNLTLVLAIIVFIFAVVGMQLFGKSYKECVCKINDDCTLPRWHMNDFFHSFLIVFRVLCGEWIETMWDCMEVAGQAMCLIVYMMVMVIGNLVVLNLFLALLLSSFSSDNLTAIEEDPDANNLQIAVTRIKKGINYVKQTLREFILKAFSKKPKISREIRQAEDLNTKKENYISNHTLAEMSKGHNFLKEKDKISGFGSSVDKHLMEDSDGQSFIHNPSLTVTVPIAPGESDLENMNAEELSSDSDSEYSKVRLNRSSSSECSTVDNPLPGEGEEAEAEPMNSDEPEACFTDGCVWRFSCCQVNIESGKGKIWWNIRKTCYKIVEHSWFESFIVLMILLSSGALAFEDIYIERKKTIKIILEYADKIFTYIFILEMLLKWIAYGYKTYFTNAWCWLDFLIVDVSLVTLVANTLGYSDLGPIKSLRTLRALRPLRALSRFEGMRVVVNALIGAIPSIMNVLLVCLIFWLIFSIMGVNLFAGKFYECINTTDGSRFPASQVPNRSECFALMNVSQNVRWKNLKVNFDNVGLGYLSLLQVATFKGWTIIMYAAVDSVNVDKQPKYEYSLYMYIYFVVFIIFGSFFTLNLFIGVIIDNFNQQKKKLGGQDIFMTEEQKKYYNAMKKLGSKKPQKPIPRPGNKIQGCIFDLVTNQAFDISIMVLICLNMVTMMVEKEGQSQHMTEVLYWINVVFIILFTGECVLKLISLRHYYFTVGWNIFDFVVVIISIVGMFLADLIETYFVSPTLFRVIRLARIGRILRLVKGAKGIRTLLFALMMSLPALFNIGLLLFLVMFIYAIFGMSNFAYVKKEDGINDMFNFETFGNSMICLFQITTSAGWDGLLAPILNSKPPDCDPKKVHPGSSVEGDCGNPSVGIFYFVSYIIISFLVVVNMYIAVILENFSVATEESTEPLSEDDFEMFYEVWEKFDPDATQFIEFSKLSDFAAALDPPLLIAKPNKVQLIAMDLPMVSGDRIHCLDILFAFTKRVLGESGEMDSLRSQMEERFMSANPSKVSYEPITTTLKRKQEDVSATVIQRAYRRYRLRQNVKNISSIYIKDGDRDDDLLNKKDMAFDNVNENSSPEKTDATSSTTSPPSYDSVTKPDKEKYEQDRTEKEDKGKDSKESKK

Row | SMILES | inhibition at 10 µM
1 | CC(C)(O)Cn1c(=O)[nH]c2ccc(Oc3ccc(C(F)(F)F)cn3)cc21 [Example 1, 1-(2-hydroxy-2-methylpropyl)-6-{[5-(trifluoromethyl)pyridin-2-yl]oxy}-1,3-dihydro-2H-benzimidazol-2-one] | 33%
2 | O=c1[nH]c2ccc(Oc3ccc(C(F)(F)F)cn3)cc2n1CC1(O)COC1 [Example 2, 1-[(3-hydroxyoxetan-3-yl)methyl]-6-{[5-(trifluoromethyl)pyridin-2-yl]oxy}-1,3-dihydro-2H-benzimidazol-2-one] | 26%
3 | O=c1[nH]c2ccc(Oc3ccc(C(F)(F)F)nc3)cc2n1CC1(O)COC1 [Example 3, 1-[(3-hydroxyoxetan-3-yl)methyl]-6-{[6-(trifluoromethyl)pyridin-3-yl]oxy}-1,3-dihydro-2H-benzimidazol-2-one] | 22%
4 | O=c1[nH]c2ccc(Oc3ccc(C(F)(F)F)cn3)cc2n1[C@H]1CC[C@@H](O)CC1 [Example 4, 1-(cis-4-hydroxycyclohexyl)-6-{[5-(trifluoromethyl)pyridin-2-yl]oxy}-1,3-dihydro-2H-benzimidazol-2-one] | 39%
5 | O=c1[nH]c2ccc(Oc3ccc(OC(F)(F)F)cc3)cc2n1CC1(O)COC1 [Example 5, 1-[(3-hydroxyoxetan-3-yl)methyl]-6-[4-(trifluoromethoxy)phenoxy]-1,3-dihydro-2H-benzimidazol-2-one] | 86%
6 | CC(C)(O)Cn1c(=O)[nH]c2ccc(Oc3ccc(F)cc3)cc21 [Example 6, 6-(4-fluorophenoxy)-1-(2-hydroxy-2-methylpropyl)-1,3-dihydro-2H-benzimidazol-2-one] | 40%
7 | O=c1[nH]c2ccc(Oc3ccc(F)cc3)cc2n1CC1(O)COC1 [Example 7, 6-(4-fluorophenoxy)-1-[(3-hydroxyoxetan-3-yl)methyl]-1,3-dihydro-2H-benzimidazol-2-one] | 40%
8 | O=c1[nH]c2ccc(Oc3ccc(Cl)cc3)cc2n1CC1(O)COC1 [Example 8, 6-(4-chlorophenoxy)-1-[(3-hydroxyoxetan-3-yl)methyl]-1,3-dihydro-2H-benzimidazol-2-one] | 80%
9 | C[C@H](n1c(=O)[nH]c2ccc(Oc3ccc(C(F)(F)F)cn3)cc21)C(C)(C)O [Example 9, 1-[(2S)-3-hydroxy-3-methylbutan-2-yl]-6-{[5-(trifluoromethyl)pyridin-2-yl]oxy}-1,3-dihydro-2H-benzimidazol-2-one] | 27%
10 | C[C@H](n1c(=O)[nH]c2ccc(Oc3ccc(F)cc3)cc21)C(C)(C)O [Example 10, 6-(4-fluorophenoxy)-1-[(2S)-3-hydroxy-3-methylbutan-2-yl]-1,3-dihydro-2H-benzimidazol-2-one] | 50%
11 | O=c1[nH]c2ccc(Oc3ccc(F)cc3)cc2n1[C@H]1CC[C@@H](O)CC1 [Example 11, 6-(4-fluorophenoxy)-1-(cis-4-hydroxycyclohexyl)-1,3-dihydro-2H-benzimidazol-2-one] | 65%
12 | CCn1c(=O)n(CC(C)(C)O)c2cc(Oc3ccc(C(F)(F)F)cn3)ccc21 [Example 12, 1-ethyl-3-(2-hydroxy-2-methylpropyl)-5-{[5-(trifluoromethyl)pyridin-2-yl]oxy}-1,3-dihydro-2H-benzimidazol-2-one] | 14%
13 | Cn1c(=O)n(CC(C)(C)O)c2cc(Oc3ccc(C(F)(F)F)cn3)ccc21 [Example 13, 3-(2-hydroxy-2-methylpropyl)-1-methyl-5-{[5-(trifluoromethyl)pyridin-2-yl]oxy}-1,3-dihydro-2H-benzimidazol-2-one] | 38%
14 | Cn1c(=O)n(CC2(O)COC2)c2cc(Oc3ccc(C(F)(F)F)cn3)ccc21 [Example 14, 3-[(3-hydroxyoxetan-3-yl)methyl]-1-methyl-5-{[5-(trifluoromethyl)pyridin-2-yl]oxy}-1,3-dihydro-2H-benzimidazol-2-one] | 39%
15 | Cn1c(=O)n(CC2(O)COC2)c2cc(Oc3ccc(C(F)(F)F)nc3)ccc21 [Example 15, 3-[(3-hydroxyoxetan-3-yl)methyl]-1-methyl-5-{[6-(trifluoromethyl)pyridin-3-yl]oxy}-1,3-dihydro-2H-benzimidazol-2-one] | 46%
16 | Cn1c(=O)n(CC2(O)COC2)c2cc(Oc3ccc(F)cc3)ccc21 [Example 16, 5-(4-fluorophenoxy)-3-[(3-hydroxyoxetan-3-yl)methyl]-1-methyl-1,3-dihydro-2H-benzimidazol-2-one] | 61%
17 | Cn1c(=O)n(CC2(O)COC2)c2cc(Oc3ccc(OC(F)(F)F)cc3)ccc21 [Example 17, 3-[(3-hydroxyoxetan-3-yl)methyl]-1-methyl-5-[4-(trifluoromethoxy)phenoxy]-1,3-dihydro-2H-benzimidazol-2-one] | 87%
18 | Cn1c(=O)n(CC2(O)COC2)c2cc(Oc3ccc(Cl)cc3)ccc21 [Example 18, 5-(4-chlorophenoxy)-3-[(3-hydroxyoxetan-3-yl)methyl]-1-methyl-1,3-dihydro-2H-benzimidazol-2-one] | 86%
19 | CC(C)(O)Cn1c(=O)[nH]c2ccc(-c3ccc(C(F)(F)F)nc3)cc21 [Example 19, 1-(2-hydroxy-2-methylpropyl)-6-[6-(trifluoromethyl)pyridin-3-yl]-1,3-dihydro-2H-benzimidazol-2-one] | 8%
20 | CC(C)(O)Cn1c(=O)[nH]c2ccc(-c3ccc(C(F)(F)F)cn3)cc21 [Example 20, 1-(2-hydroxy-2-methylpropyl)-6-[5-(trifluoromethyl)pyridin-2-yl]-1,3-dihydro-2H-benzimidazol-2-one] | 29%
21 | CC(C)(O)Cn1c(=O)[nH]c2ccc(-c3ccc(C(F)(F)F)cc3)cc21 [Example 21, 1-(2-hydroxy-2-methylpropyl)-6-[4-(trifluoromethyl)phenyl]-1,3-dihydro-2H-benzimidazol-2-one] | 96%
22 | CC(C)(O)Cn1c(=O)[nH]c2ccc(-c3ccc(F)cc3)cc21 [Example 22, 6-(4-fluorophenyl)-1-(2-hydroxy-2-methylpropyl)-1,3-dihydro-2H-benzimidazol-2-one] | 43%
23 | CC(C)(O)Cn1c(=O)[nH]c2cc(-c3ccc(C(F)(F)F)nc3)ccc21 [Example 23, 1-(2-hydroxy-2-methylpropyl)-5-[6-(trifluoromethyl)pyridin-3-yl]-1,3-dihydro-2H-benzimidazol-2-one] | 36%
24 | CC(C)(O)Cn1c(=O)[nH]c2cc(-c3ccc(F)cc3)ccc21 [Example 24, 5-(4-fluorophenyl)-1-(2-hydroxy-2-methylpropyl)-1,3-dihydro-2H-benzimidazol-2-one] | 45%
25 | CC(C)(O)Cn1c(=O)[nH]c2cc(Oc3ccc(OC(F)(F)F)cc3)ccc21 [Example 25, 1-(2-hydroxy-2-methylpropyl)-5-[4-(trifluoromethoxy)phenoxy]-1,3-dihydro-2H-benzimidazol-2-one] | 42%
26 | CC(C)(O)Cn1c(=O)[nH]c2cc(Oc3ccc(C(F)(F)F)cn3)ccc21 [Example 26, 1-(2-hydroxy-2-methylpropyl)-5-{[5-(trifluoromethyl)pyridin-2-yl]oxy}-1,3-dihydro-2H-benzimidazol-2-one] | 32%
27 | O=c1[nH]c2cc(Oc3ccc(OC(F)(F)F)cc3)ccc2n1CC1(O)COC1 [Example 27, 1-[(3-hydroxyoxetan-3-yl)methyl]-5-[4-(trifluoromethoxy)phenoxy]-1,3-dihydro-2H-benzimidazol-2-one] | 38%
28 | Cn1c(=O)n(CC2(O)COC2)c2ccc(Oc3ccc(OC(F)(F)F)cc3)cc21 [Example 28, 1-[(3-hydroxyoxetan-3-yl)methyl]-3-methyl-5-[4-(trifluoromethoxy)phenoxy]-1,3-dihydro-2H-benzimidazol-2-one] | 39%
